Activity calls are given as the source filed them. The rule behind the calls is not given here.
Tests used:
Toll-like receptor 4 [1] = molecular target: T1, Toll-like receptor 4 (Homo sapiens, UniProt O00206); experiment: Antagonist activity at TLR4 in human THP1 cells assessed as inhibition of LPS-stimulated RANTES mRNA level at 10 uM after 16 hrs by RT-PCR method; assay type: cell-based
THP-1 [2] = experiment: Downregulation of IkBalpha protein expression in human THP1 cells at 10 uM after 3 hrs by Western blot analysis; assay type: functional, cell-based
THP-1 [3] = experiment: Downregulation of IkBalpha protein expression in LPS-stimulated human THP1 cells at 10 uM after 3 hrs by Western blot analysis; assay type: functional, cell-based
Toll-like receptor 4 [4] = molecular target: T1, Toll-like receptor 4; experiment: Antagonist activity at TLR4 in human THP1 cells assessed as inhibition of LPS-stimulated NFkappaB p65 protein expression at 10 uM after 3 hrs by Western blot analysis; assay type: cell-based
[5] = molecular target: Transcription factor p65 (Homo sapiens) (UniProt Q04206); experiment: Inhibition of TNFalpha-stimulated NF-kB p65 phosphorylation (unknown origin) expressed in human AD293 cells at 10 uM after 3 hrs by Western blot analysis; assay type: cell-based
Toll-like receptor 4 [6] = molecular target: T1, Toll-like receptor 4; experiment: Antagonist activity at TLR4 in human THP1 cells assessed as inhibition of LPS-stimulated NF-kB canonical signaling pathway by measuring decrease in IkBalpha phosphorylation at 10 uM after 3 hrs by Western blot analysis; assay type: cell-based
Toll-like receptor 4 [7] = molecular target: T1, Toll-like receptor 4; experiment: Antagonist activity at TLR4 in human THP1 cells assessed as increase in LPS-stimulated NFkappaB p65 phosphorylation at 10 uM after 3 hrs by Western blot analysis; assay type: cell-based
[8] = molecular target: Toll-like receptor 2 (Homo sapiens) (UniProt O60603); experiment: Antagonist activity at TLR2 in human THP1 cells assessed as inhibition of PGN-stimulated RANTES mRNA level at 10 uM after 16 hrs by RT-PCR method; assay type: cell-based
THP-1 [9] = experiment: Upregulation of IKKalpha protein expression in LPS-stimulated human THP1 cells at 10 uM after 3 hrs by Western blot analysis; assay type: functional, cell-based
[10] = molecular target: Transcription factor p65 (Homo sapiens) (UniProt Q04206); experiment: Inhibition of TNFalpha-stimulated NF-kB p65 activation (unknown origin) expressed in human AD293 cells assessed as nuclear translocation of p65 at 10 uM after 3 hrs by confocal microscopic method; assay type: cell-based
[11] = molecular target: Transcription factor p65 (Homo sapiens) (UniProt Q04206); experiment: Upregulation of NF-kB p65 phosphorylation (unknown origin) expressed in human AD293 cells at 10 uM after 3 hrs by Western blot analysis; assay type: cell-based
[12] = molecular target: Toll-like receptor 3 (Homo sapiens) (UniProt O15455); experiment: Antagonist activity at TLR3 in human THP1 cells assessed as inhibition of poly IC-stimulated IL-6 mRNA level at 10 uM after 16 hrs by RT-PCR method; assay type: cell-based
[13] = molecular target: Toll-like receptor 2 (Homo sapiens) (UniProt O60603); experiment: Antagonist activity at TLR2 in human THP1 cells assessed as inhibition of PGN-stimulated IL-6 mRNA level at 10 uM after 16 hrs by RT-PCR method; assay type: cell-based
[14] = molecular target: Toll-like receptor 3 (Homo sapiens) (UniProt O15455); experiment: Antagonist activity at TLR3 in human THP1 cells assessed as inhibition of poly IC-stimulated RANTES mRNA level at 10 uM after 16 hrs by RT-PCR method; assay type: cell-based
[15] = molecular target: Toll-like receptor 3 (Homo sapiens) (UniProt O15455); experiment: Antagonist activity at TLR3 in human THP1 cells assessed as inhibition of poly IC-stimulated IL-1beta level at 10 uM by bead based immunoassay; assay type: cell-based
Toll-like receptor 4 [16] = molecular target: T1, Toll-like receptor 4; experiment: Antagonist activity at TLR4 in human THP1 cells assessed as inhibition of LPS-stimulated IL-6 mRNA level at 10 uM after 16 hrs by RT-PCR method; assay type: cell-based
[17] = molecular target: Toll-like receptor 3 (Homo sapiens) (UniProt O15455); experiment: Antagonist activity at TLR3 in human THP1 cells assessed as inhibition of poly IC-stimulated RANTES mRNA level after 16 hrs by RT-PCR method; assay type: cell-based
[18] = molecular target: Toll-like receptor 3 (Homo sapiens) (UniProt O15455); experiment: Antagonist activity at TLR3 in human THP1 cells assessed as inhibition of poly IC-stimulated IL-6 mRNA level after 16 hrs by RT-PCR method; assay type: cell-based
[19] = molecular target: Toll-like receptor 2 (Homo sapiens) (UniProt O60603); experiment: Antagonist activity at TLR2 in human THP1 cells assessed as inhibition of PGN-stimulated RANTES mRNA level after 16 hrs by RT-PCR method; assay type: cell-based
Toll-like receptor 4 [20] = molecular target: T1, Toll-like receptor 4; experiment: Antagonist activity at TLR4 in human THP1 cells assessed as inhibition of LPS-stimulated RANTES mRNA level after 16 hrs by RT-PCR method; assay type: cell-based
Toll-like receptor 4 [21] = molecular target: T1, Toll-like receptor 4; experiment: Antagonist activity at TLR4 in human THP1 cells assessed as inhibition of LPS-stimulated IL-6 mRNA level after 16 hrs by RT-PCR method; assay type: cell-based
[22] = molecular target: Toll-like receptor 2 (Homo sapiens) (UniProt O60603); experiment: Antagonist activity at TLR2 in human THP1 cells assessed as inhibition of PGN-stimulated IL-6 mRNA level after 16 hrs by RT-PCR method; assay type: cell-based

T1 sequence (O00206 whole entry): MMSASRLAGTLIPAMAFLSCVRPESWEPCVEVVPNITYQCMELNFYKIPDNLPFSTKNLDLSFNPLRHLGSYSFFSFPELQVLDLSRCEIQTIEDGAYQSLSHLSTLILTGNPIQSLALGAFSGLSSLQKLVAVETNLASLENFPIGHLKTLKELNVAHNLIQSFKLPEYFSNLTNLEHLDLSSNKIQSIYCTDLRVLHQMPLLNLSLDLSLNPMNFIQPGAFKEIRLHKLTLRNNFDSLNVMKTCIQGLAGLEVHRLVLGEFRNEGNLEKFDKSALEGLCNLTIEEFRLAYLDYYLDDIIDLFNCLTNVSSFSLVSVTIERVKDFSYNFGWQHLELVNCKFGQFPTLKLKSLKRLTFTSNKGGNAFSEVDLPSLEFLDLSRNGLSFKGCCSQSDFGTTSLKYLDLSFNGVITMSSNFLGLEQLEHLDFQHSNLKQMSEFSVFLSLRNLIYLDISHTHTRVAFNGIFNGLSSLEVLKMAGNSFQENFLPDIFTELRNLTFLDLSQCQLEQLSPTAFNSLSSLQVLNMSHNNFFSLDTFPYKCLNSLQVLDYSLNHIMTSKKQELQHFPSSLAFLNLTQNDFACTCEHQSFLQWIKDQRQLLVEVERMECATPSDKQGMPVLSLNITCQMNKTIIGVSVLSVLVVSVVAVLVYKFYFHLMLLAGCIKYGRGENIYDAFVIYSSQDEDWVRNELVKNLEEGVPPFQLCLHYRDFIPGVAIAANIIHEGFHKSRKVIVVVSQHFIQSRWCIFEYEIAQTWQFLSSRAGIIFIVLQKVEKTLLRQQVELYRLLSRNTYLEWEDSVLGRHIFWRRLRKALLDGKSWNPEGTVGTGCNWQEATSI
Transcription factor p65 (Homo sapiens), sequence (Q04206 whole entry): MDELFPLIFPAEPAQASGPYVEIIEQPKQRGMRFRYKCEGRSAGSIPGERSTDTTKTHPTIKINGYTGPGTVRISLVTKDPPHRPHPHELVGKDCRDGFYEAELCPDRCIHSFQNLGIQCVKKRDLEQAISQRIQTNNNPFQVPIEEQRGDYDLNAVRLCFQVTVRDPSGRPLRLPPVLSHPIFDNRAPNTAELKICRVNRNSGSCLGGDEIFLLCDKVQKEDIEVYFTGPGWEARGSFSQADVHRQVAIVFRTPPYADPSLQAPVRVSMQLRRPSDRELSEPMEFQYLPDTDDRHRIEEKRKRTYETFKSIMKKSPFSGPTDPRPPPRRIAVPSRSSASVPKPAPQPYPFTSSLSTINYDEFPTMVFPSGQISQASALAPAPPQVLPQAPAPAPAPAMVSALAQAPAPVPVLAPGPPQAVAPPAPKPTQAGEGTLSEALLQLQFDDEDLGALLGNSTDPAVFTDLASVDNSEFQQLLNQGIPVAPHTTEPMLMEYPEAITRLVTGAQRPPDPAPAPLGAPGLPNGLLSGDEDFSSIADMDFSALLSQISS
Toll-like receptor 3 (Homo sapiens), sequence (O15455 whole entry): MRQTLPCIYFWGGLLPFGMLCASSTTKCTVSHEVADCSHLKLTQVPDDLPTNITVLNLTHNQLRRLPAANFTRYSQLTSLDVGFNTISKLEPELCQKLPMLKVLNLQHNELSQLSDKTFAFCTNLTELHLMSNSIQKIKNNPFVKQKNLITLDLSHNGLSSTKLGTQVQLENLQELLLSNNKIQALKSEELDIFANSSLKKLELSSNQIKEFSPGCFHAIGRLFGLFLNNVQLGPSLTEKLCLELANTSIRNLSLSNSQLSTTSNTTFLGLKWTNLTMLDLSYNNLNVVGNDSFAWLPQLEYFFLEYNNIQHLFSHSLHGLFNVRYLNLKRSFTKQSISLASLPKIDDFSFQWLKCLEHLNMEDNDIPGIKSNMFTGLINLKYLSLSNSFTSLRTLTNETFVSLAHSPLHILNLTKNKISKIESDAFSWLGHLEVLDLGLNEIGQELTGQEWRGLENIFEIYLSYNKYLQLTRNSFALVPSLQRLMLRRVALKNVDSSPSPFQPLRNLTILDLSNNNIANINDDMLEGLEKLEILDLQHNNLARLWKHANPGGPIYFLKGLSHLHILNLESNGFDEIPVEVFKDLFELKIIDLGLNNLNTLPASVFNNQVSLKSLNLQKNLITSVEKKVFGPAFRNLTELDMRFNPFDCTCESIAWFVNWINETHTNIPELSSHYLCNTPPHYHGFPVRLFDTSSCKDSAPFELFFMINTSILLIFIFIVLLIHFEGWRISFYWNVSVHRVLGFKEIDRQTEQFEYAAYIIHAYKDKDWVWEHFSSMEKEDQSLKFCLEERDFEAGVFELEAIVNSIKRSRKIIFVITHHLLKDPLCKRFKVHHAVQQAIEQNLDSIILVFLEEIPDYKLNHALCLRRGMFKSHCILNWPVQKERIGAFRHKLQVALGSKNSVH
Toll-like receptor 2 (Homo sapiens), sequence (O60603 whole entry): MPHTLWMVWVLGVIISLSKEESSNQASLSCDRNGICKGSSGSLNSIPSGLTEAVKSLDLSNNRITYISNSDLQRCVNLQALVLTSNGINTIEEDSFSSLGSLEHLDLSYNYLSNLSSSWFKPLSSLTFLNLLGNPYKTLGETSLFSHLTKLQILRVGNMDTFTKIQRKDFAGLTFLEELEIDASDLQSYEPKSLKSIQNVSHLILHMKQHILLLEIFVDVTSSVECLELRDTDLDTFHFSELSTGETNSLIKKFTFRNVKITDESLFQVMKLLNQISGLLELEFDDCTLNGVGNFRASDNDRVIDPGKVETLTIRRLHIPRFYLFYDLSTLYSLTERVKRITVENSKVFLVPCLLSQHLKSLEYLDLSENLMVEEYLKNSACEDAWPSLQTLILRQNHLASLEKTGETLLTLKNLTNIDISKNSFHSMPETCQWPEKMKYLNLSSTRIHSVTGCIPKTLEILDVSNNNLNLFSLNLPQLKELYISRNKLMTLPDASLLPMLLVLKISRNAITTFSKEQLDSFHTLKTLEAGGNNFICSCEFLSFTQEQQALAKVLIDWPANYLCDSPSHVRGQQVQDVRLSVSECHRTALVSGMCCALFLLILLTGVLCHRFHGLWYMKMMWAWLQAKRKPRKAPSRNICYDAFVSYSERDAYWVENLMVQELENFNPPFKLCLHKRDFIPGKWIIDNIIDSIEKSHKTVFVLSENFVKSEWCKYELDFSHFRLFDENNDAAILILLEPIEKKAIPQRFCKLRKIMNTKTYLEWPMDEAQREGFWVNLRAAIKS

CC(=O)[C@]1(O)CC[C@@]2(O)[C@]1(C)[C@H](OC(=O)c1ccc(O)cc1)C[C@@H]1[C@@]3(C)CC[C@H](OC(=O)CCl)CC3=CC[C@]12O
inhibition (Toll-like receptor 4 [1]): Active
Activity (THP-1 [2]): Active
Activity (THP-1 [3]): Active
inhibition (Toll-like receptor 4 [4]): Active
inhibition [5]: inactive
inhibition (Toll-like receptor 4 [6]): inactive
inhibition (Toll-like receptor 4 [7]): inactive
inhibition [8]: Active
Activity (THP-1 [9]): Active
inhibition [10]: inactive
Activity [11]: Active
inhibition [12]: Active
inhibition [13]: Active
inhibition [14]: Active
inhibition [15]: Active
inhibition (Toll-like receptor 4 [16]): Active

COc1ccc(/C=C/C(=O)O[C@H]2CC[C@@]3(C)C(=CC[C@]4(O)[C@@H]3C[C@@H](OC(=O)/C=C(\C)C(C)C)[C@@]3(C)[C@]4(O)CC[C@@]3(O)C(C)=O)C2)cc1
inhibition [17]: Dose-dependent effect
inhibition [5]: inactive
inhibition [18]: Dose-dependent effect
inhibition [19]: Dose-dependent effect
inhibition (Toll-like receptor 4 [7]): Active
inhibition (Toll-like receptor 4 [20]): Dose-dependent effect
Activity (THP-1 [9]): Active
inhibition (Toll-like receptor 4 [21]): Dose-dependent effect
inhibition [10]: inactive
inhibition [15]: Active
inhibition [22]: Dose-dependent effect

From ChEMBL document CHEMBL4033685, “C21-steroidal pregnane sapogenins and their derivatives as anti-inflammatory agents” (Bioorg Med Chem, 2017)
